Data taken from the supplement of paper PMC10307832.

Key:
Test in all cases: relative viability (nuclei count vs DMSO), 5 days (fraction); higher = more cells survive
Selumetinib + Decitabine = compound: Cn1cnc2c(F)c(Nc3ccc(Br)cc3Cl)c(C(=O)NOCCO)cc21 [Selumetinib] + Nc1ncn([C@H]2C[C@H](O)[C@@H](CO)O2)c(=O)n1 [Decitabine] (partner 2 µM)
Procedure, shortened: (§1)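 Relative viability is defined as nuclei in treated wells over nuclei in vehicle wells. Duplicate plates were run and medians reported. Lung cancer cell lines in 1536-well plates were dosed by pin tool one day after seeding, with one drug or with a fixed anchor-drug dose plus five library-drug doses (not always all listed) in √10 steps, and nuclei were counted after 5 days.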

Selumetinib + Linsitinib = compound: Cn1cnc2c(F)c(Nc3ccc(Br)cc3Cl)c(C(=O)NOCCO)cc21 [Selumetinib] + C[C@]1(O)C[C@@H](c2nc(-c3ccc4ccc(-c5ccccc5)nc4c3)c3c(N)nccn32)C1 [Linsitinib] (partner 1 µM)
Procedure, shortened: as §1

Selumetinib + Trametinib = compound: Cn1cnc2c(F)c(Nc3ccc(Br)cc3Cl)c(C(=O)NOCCO)cc21 [Selumetinib] + CC(=O)Nc1cccc(-n2c(=O)n(C3CC3)c(=O)c3c(Nc4ccc(I)cc4F)n(C)c(=O)c(C)c32)c1 [Trametinib] (partner 0.02 µM)
Procedure, shortened: as §1

Venetoclax + Luminespib = compound: CC1(C)CCC(CN2CCN(c3ccc(C(=O)NS(=O)(=O)c4ccc(NCC5CCOCC5)c([N+](=O)[O-])c4)c(Oc4cnc5[nH]ccc5c4)c3)CC2)=C(c2ccc(Cl)cc2)C1 [Venetoclax] + CCNC(=O)c1noc(-c2cc(C(C)C)c(O)cc2O)c1-c1ccc(CN2CCOCC2)cc1 [Luminespib] (partner 0.01 µM)
Procedure, shortened: as §1

Cell Line | relative viability (Selumetinib + Decitabine; first compound 0.02 µM) | relative viability (Selumetinib + Decitabine; first compound 0.06325 µM) | relative viability (Selumetinib + Decitabine; first compound 0.2 µM) | relative viability (Selumetinib + Decitabine; first compound 0.6325 µM) | relative viability (Selumetinib + Linsitinib; first compound 0.02 µM) | relative viability (Selumetinib + Linsitinib; first compound 0.06325 µM) | relative viability (Selumetinib + Linsitinib; first compound 0.2 µM) | relative viability (Selumetinib + Linsitinib; first compound 0.6325 µM) | relative viability (Selumetinib + Trametinib; first compound 0.02 µM) | relative viability (Selumetinib + Trametinib; first compound 0.06325 µM) | relative viability (Selumetinib + Trametinib; first compound 0.2 µM) | relative viability (Selumetinib + Trametinib; first compound 0.6325 µM) | relative viability (Venetoclax + Luminespib; first compound 0.01 µM) | relative viability (Venetoclax + Luminespib; first compound 0.03162 µM) | relative viability (Venetoclax + Luminespib; first compound 0.1 µM) | relative viability (Venetoclax + Luminespib; first compound 0.3162 µM) | relative viability (Venetoclax + Luminespib; first compound 1 µM)
NCI-H1944 | 0.433 | 0.456 | 0.397 | 0.426 | 0.979 | 0.928 | 0.762 | 0.687 | 0.442 | 0.398 | 0.406 | 0.389 | 0.992 | 0.787 | 0.775 | 0.879 | 0.696
NCI-H1975 | 0.615 | 0.384 | 0.385 | 0.334 | 1 | 0.886 | 0.892 | 0.623 | 0.332 | 0.34 | 0.37 | 0.31 | 0.241 | 0.212 | 0.191 | 0.172 | 0.251
NCI-H1993 | 0.571 | 0.615 | 0.549 | 0.604 | 0.746 | 0.688 | 0.754 | 0.878 | 0.624 | 0.604 | 0.527 | 0.528 | 0.881 | 0.843 | 0.917 | 0.896 | 0.777
NCI-H2009 | 0.354 | 0.292 | 0.35 | 0.279 | 1.07 | 0.842 | 0.562 | 0.489 | 0.285 | 0.273 | 0.29 | 0.257 | 0.987 | 1.08 | 0.937 | 1 | 0.92
NCI-H2023 | 0.232 | 0.211 | 0.209 | 0.247 | 0.583 | 0.546 | 0.466 | 0.576 | 0.51 | 0.467 | 0.535 | 0.51 | 0.744 | 0.911 | 0.859 | 0.784 | 0.676
NCI-H2085 | 0.524 | 0.593 | 0.537 | 0.544 | 0.863 | 0.82 | 0.737 | 0.763 | 0.545 | 0.62 | 0.398 | 0.513 | 0.339 | 0.427 | 0.437 | 0.37 | 0.438
NCI-H2087 | 0.267 | 0.253 | 0.249 | 0.213 | 0.817 | 0.647 | 0.595 | 0.374 | 0.19 | 0.171 | 0.231 | 0.204 | 0.154 | 0.138 | 0.175 | 0.18 | 0.135
NCI-H2126 | 0.559 | 0.513 | 0.564 | 0.56 | 0.679 | 0.674 | 0.595 | 0.538 | 0.569 | 0.574 | 0.6 | 0.622 | 0.866 | 0.95 | 0.991 | 0.961 | 0.87
NCI-H2347 | 0.571 | 0.585 | 0.49 | 0.34 | 0.748 | 0.633 | 0.47 | 0.436 | 0.264 | 0.294 | 0.287 | 0.278 | 0.307 | 0.702 | 0.405 | 0.283 | 0.948
NCI-H2405 | 0.733 | 0.751 | 0.736 | 0.615 | 0.77 | 0.575 | 0.546 | 0.392 | 0.643 | 0.638 | 0.669 | 0.615 | 0.747 | 0.754 | 0.85 | 0.712 | 0.639
NCI-H3122 | 0.401 | 0.394 | 0.401 | 0.452 | 0.933 | 0.817 | 0.766 | 0.728 | 0.202 | 0.212 | 0.199 | 0.266 | 0.0697 | 0.0939 | 0.105 | 0.0864 | 0.101
PC-3 [JPC-3] | 0.786 | 0.745 | 0.796 | 0.798 | 0.95 | 0.876 | 0.92 | 0.727 | 0.65 | 0.641 | 0.685 | 0.656 | 0.673 | 0.661 | 0.667 | 0.688 | 0.668
PC-14 | 0.241 | 0.2 | 0.227 | 0.179 | 0.935 | 0.87 | 0.912 | 0.9 | 0.847 | 0.74 | 0.732 | 0.604 | 0.175 | 0.122 | 0.15 | 0.153 | 0.154
RERF-LC-KJ | 0.682 | 0.608 | 0.639 | 0.737 | 0.828 | 0.949 | 0.862 | 0.796 | 0.911 | 0.858 | 0.887 | 0.981 | 1.19 | 1.19 | 1.22 | 1.19 | 1.08
SK-LU-1 | 0.793 | 0.65 | 0.572 | 0.438 | 0.897 | 1.06 | 0.903 | 0.625 | 0.522 | 0.442 | 0.424 | 0.412 | 0.188 | 0.21 | 0.197 | 0.198 | 0.197
SK-MES-1 | 0.416 | 0.307 | 0.356 | 0.323 | 1.03 | 1.03 | 0.814 | 0.775 | 0.561 | 0.579 | 0.476 | 0.461 | 0.82 | 0.789 | 0.806 | 0.822 | 0.728
SW 1573 | 0.505 | 0.369 | 0.384 | 0.373 | 0.779 | 0.642 | 0.683 | 0.596 | 0.599 | 0.56 | 0.522 | 0.545 | 0.234 | 0.152 | 0.153 | 0.385 | 0.215
